# Test system: Homo sapiens
# Assay: In vivo inhibition of IDO1 in malignant glioma patient assessed as reduction in intratumoral kynurenine levels relative to control
# Format: functional
structure (smiles),measurement,value
O=C1CC(c2c[nH]c3ccc(F)cc23)C(=O)N1 (stereo unspecified) [PF-06840003],inhibition (INH),>80%
